Experimental data from paper PMC4382590 (Biochemistry, 2015).

What was measured:
[1] = target: T1, saFabI (Staphylococcus aureus, UniProt Q6GI75); assay: ThermoFluor thermal shift; assay type: binding; conditions: Tm of free enzyme 62.6
T1 sequence (Q6GI75 1-256): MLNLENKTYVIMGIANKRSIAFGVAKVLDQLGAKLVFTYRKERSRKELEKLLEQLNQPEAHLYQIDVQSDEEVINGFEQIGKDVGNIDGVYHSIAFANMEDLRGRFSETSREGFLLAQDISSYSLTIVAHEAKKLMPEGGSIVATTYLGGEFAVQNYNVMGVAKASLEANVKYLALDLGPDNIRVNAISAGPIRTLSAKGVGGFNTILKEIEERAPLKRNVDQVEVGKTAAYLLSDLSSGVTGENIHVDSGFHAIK

[2] = target: T1, saFabI; assay: X-ray crystal structure; assay type: binding; conditions: ternary complexes with PT12, PT400, PT404, PT449 or MUT37307
[3] = target: T2, ecFabI (Escherichia coli, UniProt P0AEK4); assay: X-ray crystal structure; assay type: binding
T2 sequence (P0AEK4 1-262): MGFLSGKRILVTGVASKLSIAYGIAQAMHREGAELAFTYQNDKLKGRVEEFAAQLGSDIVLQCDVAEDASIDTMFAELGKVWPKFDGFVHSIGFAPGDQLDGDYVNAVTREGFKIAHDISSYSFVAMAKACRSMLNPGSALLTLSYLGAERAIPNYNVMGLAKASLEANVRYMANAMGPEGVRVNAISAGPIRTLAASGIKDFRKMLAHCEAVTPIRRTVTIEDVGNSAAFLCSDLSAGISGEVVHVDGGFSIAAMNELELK

[4] = target: T1, saFabI; assay: single-concentration progress curve analysis; assay type: biochemical

SMILES: Cc1c(N)cccc1Cn1ccc(OCCc2cccs2)cc1=O [CG400549]
- Wild-type saFabI ([1]; ternary complex with NADPH): 71.2 °C

SMILES: NC(=O)c1ccc[n+]([C@@H]2O[C@H](COP(=O)(O)OP(=O)(O)OC[C@H]3O[C@@H](n4cnc5c(N)ncnc54)[C@H](OP(=O)(O)O)[C@@H]3O)[C@@H](O)[C@H]2O)c1 [NADP^+]
- X-ray crystal structure [2]: saFabI in complex with NADP^+ and PT12, PT400, PT404, PT449, or MUT37307

SMILES: NC(=O)c1ccc[n+]([C@@H]2O[C@H](COP(=O)(O)OP(=O)(O)OC[C@H]3O[C@@H](n4cnc5c(N)ncnc54)[C@H](O)[C@@H]3O)[C@@H](O)[C@H]2O)c1 [NAD^+]
- X-ray crystal structure ([3]; ternary complex with PT449): ecFabI in complex with NAD^+ and PT449 have been deposited in the PDB

SMILES: CCCCCCc1ccc(Oc2ccc([N+](=O)[O-])cc2)c(O)c1 [PT12]
- Ki [4]: 0.05 nM

SMILES: CCCCCCc1ccc(Oc2ccccc2C#N)c(O)c1 [PT119]
- Wild-type saFabI ([1]; ternary complex with NADP+): 70.4 °C

SMILES: CCc1cc(O)c(Oc2ccc([N+](=O)[O-])cc2Cl)cc1F [PT404]
- Ki [4]: 0.75 nM

SMILES: N#Cc1cc(Br)ccc1Oc1ccc(Cl)cc1O [PT449]
- X-ray crystal structure ([3]; ternary complex with NAD+): ecFabI in complex with NAD^+ and PT449 have been deposited in the PDB
